# Test results: patent US4851536A, “Cyclohexylquinolines as inhibitors of interleukin 1” (American Home Products Corporation, priority 1988, dated 1989)
# Key:
# [1] = test system: IL 1-induced release of neutral protease from rabbit articular chondrocytes; assay: Inhibition of IL 1-induced release of neutral protease from rabbit articular chondrocytes (% inhibition of protease secretion, azocoll degradation); format: cell-based, rabbit (male New Zealand White); settings: Oryctolagus cuniculus, Chondrocyte, test compound 10 minutes prior to IL 1, 24 hours after IL 1 stimulation
# Protocol: The ability of the compounds of the inventions to inhibit interleukin 1 is measured by the ability of the test compounds to inhibit the IL 1-induced release of neutral protease from rabbit articular chondrocytes.
# This assay is carried out as follows:
# Isolation of rabbit chondrocytes:
# Male New Zealand White rabbits are anesthetized with 50 mg/kg of ketamine (i.m.) and killed by an intracardiac injection of 3 mls of Nembutal. The knee joints of both legs are resected and the articular surfaces are exposed. Cartilage slices are obtained using a scalpel and are placed in a tissue culture dish (100 mm diameter) containing 10 mls of Hank's balanced salt solution (HBSS). The chondrocytes within the cartilage slices are then liberated by a series of enzyme digestions. The slices are incubated for 10 minutes at 37° C. in 0.05% hyaluronidase (Sigma H-3884), rinsed with HBSS and incubated with 0.2% trypsin (Sigma T-2395) for 10 minutes at 37° C. The slices are rinsed again and incubated for 10 minutes at 37° C. with 1.2% collagenase (Sigma C-5138). The slices are then rinsed again with HBSS and resuspended in 10 ml of Ham's F-12 medium containing 10% fetal bovine calf serum (FCS) and 0.2% collagenase and incubated overnight at 37° C. in a 5% CO2 incubator. The next day, the medium containing the digested cartilage fragments and liberated chondrocytes is transferred to a 15 ml centrifuge tube and the cells are collected by centrifugation and washed twice and resuspended in Ham's F-12 medium. The cells are then plated into 24-well tissue culture plates (2×10^5 cells/well) and incubated at 37° C. until confluent (usually 4-6 days).
# Stimulation of chondrocytes and drug treatment
# The confluent chondrocytes are rinsed twice with serum-free Ham's F-12 medium and 1 ml is added to each well. Fifty μl of purified human IL 1 (100 Units/ml; Genzyme Corporation, Boston, MA) is then added to stimulate these cells to secrete neutral protease. To measure drug effects, the cells are treated with test compound 10 minutes prior to additon of IL 1. The standard screening dose is 10 μM. Twenty-four hours after IL 1 stimulation, supernatant fluids are collected and assayed for neutral protease activity.
# The neutral protease activity of chondrocyte supernatant fluids is determined by their ability to degrade an insoluble protease substrate, azocoll (Sigma). Supernatants are treated for 10 minutes at room temperature with 350 μM p-aminophenylmurcuric acetate to activate the latent enzyme. Three hundred μl of supernatant is then mixed with 500 μl of a 20 mg/ml suspension of azocoll and incubated at 37° C. for 18-24 hours with gentle rocking. The mixtures are centrifuged and the amount of substrate hydrolyzed is determined by measuring the absorbance of the supernatant at 520 nm.
# Drug effects are calculated as the % change in enzyme activity (absorbance)by supernatants from drug-treated chondrocytes relative to enzyme activity of supernatants from vehicle-treated chondrocytes as follows:
# % Inhibition of Protease Secretion= [formula]
# [2] = test system: IL 1-induced release of neutral protease from rabbit articular chondrocytes; assay: as above; format: cell-based, rabbit (male New Zealand White); settings: Oryctolagus cuniculus, Chondrocyte, test compound 10 minutes prior to IL 1, 24 hours after IL 1 stimulation; remark: listed apart in the source
Compound,inhibition at 10 µM [1] [%],inhibition at 0.1 µM [2] [%],inhibition at 1 µM [2] [%],inhibition at 5 µM [2] [%]
"Clc1ccc2c(Cl)c3c(nc2c1)CCSC3 [Example 1A, 7,10-Dichloro-3,4-dihydro-1H-thiopyrano[4,3-b]quinoline]",35 ± 11,,,
"Clc1ccc2c(NNc3ccccc3)c3c(nc2c1)CCSC3 [Example 1B, 7-Chloro-3,4-dihydro-10-(2-phenylhydrazino)-1H-thiopyrano[4,3-b]quinoline]",98 ± 1,67,94,93 ± 5
"CC1CCc2nc3cc(Cl)ccc3c(Cl)c2C1 (stereo not shown) [Example 2A, 6,9-Dichloro-1,2,3,4-tetrahydro-2-methylacridine, quarter hydrate]",34 ± 26,,,
"CC1CCc2nc3cc(Cl)ccc3c(NNc3ccccc3)c2C1 (stereo not shown) [Example 2B, 6-Chloro-1,2,3,4-tetrahydro-2-methyl-9-(2-phenylhydrazino)acridine]",85 ± 6,,36,
"Clc1ccc2c(Cl)c3c(nc2c1)CCC(c1ccccc1)C3 (stereo not shown) [Example 3A, 6,9-Dichloro-1,2,3,4-tetrahydro-2-phenylacridine, hemihydrate]",≤ 20,,,
"Clc1ccc2c(NNc3ccccc3)c3c(nc2c1)CCC(c1ccccc1)C3 (stereo not shown) [Example 3B, 6-Chloro-1,2,3,4-tetrahydro-2-phenyl-9-(2-phenylhydrazino)acridine]",81 ± 2,,27,
"Clc1c2c(nc3ccccc13)CCSC2 [Example 4, 10-Chloro-3,4-dihydro-1H-thiopyrano[4,3-b]quinoline]",43,,38,46
"c1ccc(NNc2c3c(nc4ccccc24)CCSC3)cc1 [Example 5, 3,4-Dihydro-10-(2-phenylhydrazino)-1H-thiopyrano[4,3-b]quinoline, three-quarters hydrate]",79 ± 14,,37,55 ± 22
"O=S1(=O)CCc2nc3ccccc3c(Cl)c2C1 [Example 6, 10-Chloro-3,4-dihydro-1H-thiopyrano[4,3-b]quinoline 2,2-dioxide]",32,,,19
"O=S1(=O)CCc2nc3cc(Cl)ccc3c(Cl)c2C1 [Example 7, 7,10-Dichloro-3,4-dihydro-1H-thiopyrano[4,3-b]quinoline 2,2-dioxide]",25,,10,26
"O=S1(=O)CCc2nc3cc(Cl)ccc3c(NNc3ccccc3)c2C1 [Example 8, 7-Chloro-3,4-dihydro-10-(2-phenylhydrazino)-1H-thiopyrano[4,3-b]quinoline 2,2-dioxide]",16,,3,37
"COC(=O)C1CCc2nc3cc(Cl)ccc3c(Cl)c2C1 (stereo not shown) [Example 9, 6,9-Dichloro-1,2,3,4-tetrahydro-2-acridinecarboxylic acid methyl ester]",58,,30,53
"CCOC(=O)C1CCc2nc3cc(Cl)ccc3c(NNc3ccccc3)c2C1 (stereo not shown) [Example 10, 6-Chloro-1,2,3,4-tetrahydro-9-(2-phenylhydrazino)-2-acridinecarboxylic acid ethyl ester]",96,70,91,
"O=C(O)C1CCc2nc3cc(Cl)ccc3c(Cl)c2C1 (stereo not shown) [Example 11, 6,9-Dichloro-1,2,3,4-tetrahydro-2-acridinecarboxylic acid]",88,58,50,
"O=C(O)C1CCc2nc3cc(Cl)ccc3c(NNc3ccccc3)c2C1 (stereo not shown) [Example 12, 6-Chloro-1,2,3,4-tetrahydro-9-(2-phenylhydrazino)-2-acridinecarboxylic acid hemihydrate]",68,57,61,
